The subject of data set [1] is HEK293-EBNA cells. Nature of the data set: Transient transfection of HEK293-EBNA cells in serum-free suspension culture, expression of soluble TNF receptor p55 (Example 3). Format: cell-based, Human. As to the method: (§1) 1 mg of the compound obtained in Example 2 was dissolved in 500 µl acetonitrile, diluted in 500 µl sterile pure water (1 mg/ml) and stored at 4 °C. 15 µl of a plasmid solution (1 mg/ml) encoding the soluble human tumor necrosis factor receptor p55 gene was transferred into 1.5 ml medium and mixed. Various amounts of the compound obtained in […] was added, mixed and after 10 minutes at room temperature, the mixture was transferred to 15 ml HEK293-EBNA cells in suspension.

The test system of data set [2] is HEK293-EBNA cells. Nature of the data set: Cell viability of transfected HEK293-EBNA cells in serum-free suspension culture (Example 3). In kind it is cell-based, Human. The following applies: compound-mediated transfection; serum-free suspension culture of HEK293-EBNA cells. As to the method: as §1
Experiment in data set [3]: as above
The following applies: human, HEK293-EBNA cells in suspension, serum-free suspension culture. In kind it is cell-based, Human. As to the method: as §1

The next data set has as its system Glioma C6. As to the kind of experiment: Luciferase transfection efficiency, serum-free suspension culture (Example 5). In kind it is cell-based. Particulars: soluble cell extract after 24 hours. As to the method: (§2) 1 mg of the compound obtained in Example 2 was dissolved in 500 µl sterile pure water (1 mg/ml) and stored at 4 °C. 90 mg polyethyleneimine, with a molecular weight of 25 kDa, was dissolved in sterile pure water (0.9 mg/ml), neutralized with HCl, sterile filtered and stored at room temperature.
(§3) 3 µl of a plasmid solution (1 mg/ml) encoding the luciferase gene was diluted in 1.5 ml culture medium and mixed. 2.25 µl compound (1 mg/ml) as described in Example 2 was added, mixed and followed by 8.3 µl PEI (0.9 mg/ml). After mixing and incubation for 10 minutes at room temperature, the mixture was transferred into 15 ml of various cells. Cells which were grown in serum-free suspension culture were transferred into fresh medium before adding the complexes. The luciferase activity was measured in the soluble cell extract after 24 hours incubation and expressed as relative light unit (RLU) per milligram protein.

Another data set has as its system BHK 21 Cl. The data set is described as above. In kind it is cell-based. The following applies: soluble cell extract after 24 hours. The procedure:
as §2, §3

A further data set has as its system CHO dhfr-. The description is as above. In kind it is cell-based. Particulars: soluble cell extract after 24 hours. The procedure:
as §2, §3

The test system of a further data set is HEK293. Described as above. Format: cell-based, Human. Particulars: soluble cell extract after 24 hours. The procedure:
as §2, §3

The test system of a further data set is HEK293-EBNA. The description is as above. In kind it is cell-based, Human. Particulars: soluble cell extract after 24 hours. As to the method: as §2, §3
Data set [4] has as its system HEK293-EBNA cells. Nature of the data set: Influence of antibiotics on transient transfection in HL medium, luciferase expression (Example 13). In kind it is cell-based, Human. The following applies: control without = 100, compound from Example 2 and PEI. The procedure: 1 mg of the compound from Example 2 was dissolved in 0.5 ml acetonitrile, mixed for 3-5 minutes at 37 °C, diluted in 0.5 ml sterile, pure water (1 mg/ml) and stored at 4 °C. 90 mg polyethelenimine (PEI), with a molecular weight of 25 kDa, were dissolved in sterile, pure water (0.9 mg/ml), neutralized with HCl, sterile filtered and stored at 4 °C. 3 µl of a plasmid solution (1 mg/ml) encoding the luciferase gene was added to 1.5 ml HL medium (containing 0.3% Primatone RL) and mixed. After 2 minutes incubation at room temperature, 2.25 µl of the compound from Example 2 (1mg/ml) was added and mixed, followed by 8.3 µl PEI (0.9 mg/ml). After mixing and incubation for 15-30 minutes at room temperature, the mixture was transferred into 15 ml of HEK293-EBNA cells containing different antibiotics. Cells which were grown in serum-free suspension culture in HL medium (containing 0.3% Primatone RL and different antibiotics) were transferred into fresh HL medium (containing 0.3% Primatone RL and different antibiotics), then adjusted to 5.5-6 x 10^6 cells/ml before adding the DNA complexes. The luciferase activity was measured in the soluble cell extract after 20-22 hours incubation time and expressed as relative light units per ml culture.

Data set [5] deals with HEK293-EBNA cells. Nature of the data set: Effect of various compounds on DNA complex formation in DMEM/HAM F12 medium, luciferase expression (Example 11). In kind it is cell-based, Human. As to the method:
1 mg of the compound from Example 2 was dissolved in 0.5 ml acetonitrile, mixed for 3-5 minutes at 37 °C, diluted in 0.5 ml sterile, pure water (1 mg/ml) and stored at 4 °C. 90 mg polyethelenimine (PEI), with a molecular weight of 25 kDa, were dissolved in sterile, pure water (0.9 mg/ml), neutralized with HCl, sterile filtered and stored at 4 °C.
Different growth promotion compounds were added to 1.5 ml DMEM/HAM F12 medium (without any compounds) and mixed. After 2-3 minutes, 3 µl of a plasmid solution (1 mg/ml) encoding the luciferase gene was added to the 1.5 ml […] and mixed. After 2 minutes incubation at room temperature, 2.25 µl of the compound from Example 2 (1mg/ml) was added and mixed, followed by 8.3 µl PEI (0.9 mg/ml). After mixing and incubation for 15-30 minutes at room temperature, the mixture was transferred into 15 ml of HEK293-EBNA cells. Cells which were grown in serum-free suspension culture in HL medium (containing 0.3% Primatone RL) were transferred into fresh HL medium (containing 0.3% Primatone RL) then adjusted to 5.5-6 x 10^6 cells/ml before adding the DNA complexes. The luciferase activity was measured in the soluble cell extract after 20-22 hours incubation time and expressed as relative light units per ml culture. […]

On to `CCCCCCCC/C=C\CCCCCCCC(=O)OC[C@H](COP(=O)(O)OCCNC(=O)CCSSC[C@@H](NC(=O)[C@H](NC(=O)CNC(=O)[C@@H](C)NC(=O)[C@H](NC(=O)[C@@H](CC(C)C)NC(=O)[C@@H](CCCCN)NC(=O)[C@H](NC(=O)[C@@H](CC(C)C)NC(=O)[C@H](NC(=O)[C@H](NC(=O)CNC(=O)[C@@H](CC(C)C)NC(=O)[C@H]1CCCN1C(=O)[C@@H](C)NC(=O)[C@@H](CC(C)C)NC(=O)[C@H](NC(=O)[C@@H](CO)NC(=O)[C@@H](Cc1c[nH]c2ccccc12)NC(=O)[C@H](NC(=O)[C@@H](CCCCN)NC(=O)[C@@H](CCCNC(=N)N)NC(=O)[C@@H](CCCCN)NC(=O)[C@@H](CCCNC(=N)N)NC(=O)[C@@H](CCC(N)=O)NC(=O)[C@H](N)CCC(N)=O)[C@H](C)CC)[C@H](C)CC)[C@H](C)O)[C@H](C)O)C(C)C)C(C)C)[C@H](C)CC)C(N)=O)OC(=O)CCCCCCC/C=C\CCCCCCCC` [Compound, retro-inverso dioleylmelittin], for which the TNFRp55 is 0.1 ng/mL with HEK293-EBNA cells [1] (Compound 1 µg/ml); 0.2 ng/mL with HEK293-EBNA cells [1] (Compound 2 µg/ml); 2.5 ng/mL in the data set with HEK293-EBNA cells [1] (Compound 4 µg/ml); 6.3 ng/mL with HEK293-EBNA cells [1] (Compound 6 µg/ml); 83 ng/mL in the data set with HEK293-EBNA cells [1] (Compound 10 µg/ml). Also, the cell toxicity effects entry in the data set on HEK293-EBNA cells [2] is reported as “absence of detectable cell toxicity effects”. For the same compound, the viability (commonly a read-out of living cells in per cent, often relative to untreated cells) at 1 µg/mL in data set [3] (Compound 1 µg/ml) was in the range of 90 to 95%. In data set [3] (Compound 2 µg/ml), this compound displayed a viability at 2 µg/mL of 90 to 95%. In addition, in data set [3] (Compound 4 µg/ml), the viability at 4 µg/mL is 90 to 95%. This compound had a viability at 6 µg/mL in data set [3] (Compound 6 µg/ml) of 90 to 95%. In [3] (Compound 10 µg/ml), this compound gave a viability at 10 µg/mL of 90 to 95%. The Luciferase activity is listed as 5.8 x 10^6 RLU/mg protein with Glioma C6; 5.2 x 10^5 RLU/mg protein with BHK 21 Cl; 1.4 x 10^6 RLU/mg protein in the data set on CHO dhfr-; 1.8 x 10^6 RLU/mg protein in the data set with HEK293; 2.2 x 10^6 RLU/mg protein in the data set on HEK293-EBNA.
In the data set with HEK293-EBNA cells [4] (antibiotic 2 µg/ml in HL medium with Primatone RL (0.3%)), `C[C@H]1c2cccc(O)c2C(=O)C2=C(O)[C@]3(O)C(=O)C(C(N)=O)=C(O)[C@@H](N(C)C)[C@@H]3[C@@H](O)[C@@H]21` [Doxycycline] gave a Luciferase activity of 89%.
On to `CN[C@@H]1[C@@H](O)[C@@H](O[C@@H]2[C@@H](O)[C@H](O[C@H]3O[C@H]([C@@H](C)O)[C@@H](O)[C@H](O)[C@H]3N)[C@@H](N)C[C@H]2N)OC[C@]1(C)O` [Geneticin (G-418), Geneticin], for which, in the data set on HEK293-EBNA cells [4] (antibiotic 250 µg/ml in HL medium with Primatone RL (0.3%)), the Luciferase activity turned out to be 93%.
On to `NC(=O)CC[C@H](N)C(=O)O` [Glutamine 200 mM, Glutamine], for which, in the data set on HEK293-EBNA cells [5] (additive 1:100, Primatone RL was set as 100 %), the “% Increase” value is reported as 13%. The compound further yielded a Luciferase activity with HEK293-EBNA cells [5] (additive dilution 1:100 in DMEM/HAM F12, compound from Example 2 and PEI) of 1.06 RLU x 10^9/ml.
Consider Gentamycin, for which, in the data set with HEK293-EBNA cells [4] (antibiotic 50 µg/ml in HL medium with Primatone RL (0.3%)), the Luciferase activity came to 80%.

Values taken from patent publication EP1182208A2, “Composition for DNA transfection” (Roche Diagnostics GmbH, priority 2000, dated 2002).
